Measured values: US20120115157A1, “Methods for Screening for Antibiotic Compounds” (Trustees of Dartmouth College, priority 2009, published 2012)
In brackets after ≈: the same amount, converted by molar mass.

These compounds were tested on S. aureus (assay: Minimum Inhibitory Concentration (MIC), inhibition of growth of S. aureus in vitro). Settings: Staphylococcus aureus.
Format: cell-based
Excerpt: The next step will be to test the drugs for activity in vitro to inhibit growth of bacterial cells and determination of minimum inhibitory concentration (MIC) doses for the drugs. Determining MIC doses is a standard assay in development of antibiotic drugs and methods are well known in the art. For example, MIC can be determined according to the Clinical and Laboratory Standards Institute guidelines.
Once the compounds of the present invention were identified through the MazEF screening assay described above, the activity of the compounds to inhibit growth of S. aureus in vitro was tested using the standard method of determining Minimum Inhibitory Concentrations (MICS). Such methods are well known to those of skill in the art since determining MIC doses is a standard assay in development of antibiotic drugs. For example, MIC values can be determined according to the Clinical and Laboratory Standards Institute guidelines. In Table 1, the MIC values are presented for each of the ten compounds identified through the MazEF screening assay as having potential for antibiotic activity in S. aureus.

| Compound | MIC [µg/mL] |
| --- | --- |
| Cc1ccc(Nc2nc3nonc3nc2N)c(C)c1 [Compound 4, N-(2,4-dimethylphenyl)[1,2,5]oxadiazolo [3,4-b]pyrazine-5,6-diamine] | 12.5 (≈ 48.8 µM) |
| CCN1CCc2c(sc(NC(=O)Nc3ccc(Cl)cc3)c2C(N)=O)C1 [Compound 9, 2-({[(4-chlorophenyl)amino]carbonyl}amino)-6-ethyl-4,5,6,7-tetrahydrothieno[2,3-c]pyridine-3-carboxamide] | 100 (≈ 264 µM) |
| COc1ccc(/C=C\C(=O)C2C(=O)c3ccccc3C2=O)cc1 [Compound 10] | 100 (≈ 326 µM) |
| CN(C)c1ccc(/C=C2\SC(=S)N(C(Cc3ccccc3)C(=O)O)C2=O)cc1 (centres unmarked) [Compound 1, 2-{5-[4-(dimethylamino)benzylidene]-4-oxo-2-thioxo-1,3-thiazolidin-3-yl}-3-phenylpropanoic acid] | 12.5 (≈ 30.3 µM) |
| O=C1c2ccccc2-c2onc3ccc(Cl)c1c23 [Compound 5, 5-chloro-6H-anthra[1,9-cd]isoxazol-6-one] | 6.25 (≈ 24.4 µM) |
